According to ChEMBL document CHEMBL4316621, “A potent seven-membered cyclic BTK (Bruton's tyrosine Kinase) chiral inhibitor conceived by structure-based drug design to lock its bioactive conformation” (Bioorg Med Chem Lett, 2019):
In brackets after ≈: the same amount, converted by molar mass.

How the values were obtained:
[1] = Intrinsic clearance in rat liver microsomes at 1 uM preincubated for 1 hr followed by NADPH addition and measured by LC/MS/MS analysis; type: ADME, Microsome; details: read-out: CLH
[2] = target: T1, Cytochrome P450 3A4 (Homo sapiens, UniProt P08684); test: Inhibition of CYP3A4 (unknown origin); type: ADME
T1 sequence (P08684 whole entry): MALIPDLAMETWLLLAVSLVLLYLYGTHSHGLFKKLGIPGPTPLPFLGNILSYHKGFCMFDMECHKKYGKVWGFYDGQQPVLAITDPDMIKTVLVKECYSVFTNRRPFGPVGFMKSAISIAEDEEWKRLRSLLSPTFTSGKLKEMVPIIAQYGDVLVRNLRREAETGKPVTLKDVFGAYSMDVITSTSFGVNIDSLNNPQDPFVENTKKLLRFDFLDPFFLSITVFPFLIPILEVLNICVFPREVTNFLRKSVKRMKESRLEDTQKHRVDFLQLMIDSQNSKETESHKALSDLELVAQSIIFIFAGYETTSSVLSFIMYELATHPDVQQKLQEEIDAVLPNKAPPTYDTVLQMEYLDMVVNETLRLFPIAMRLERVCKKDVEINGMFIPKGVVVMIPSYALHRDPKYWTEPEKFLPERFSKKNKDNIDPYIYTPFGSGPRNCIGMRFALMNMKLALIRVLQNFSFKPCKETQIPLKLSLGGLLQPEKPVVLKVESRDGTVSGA

[3] = target: T2, Tyrosine-protein kinase BTK (Homo sapiens, UniProt Q06187); test: Inhibition of BTK in goat F(ab')2 anti-human IgM-stimulated human whole blood assessed as suppression of CD69 expression on B cells pretreated for 30 mins followed by goat F(ab')2 anti-human IgM-stimulation and measured after 20 hrs by flow cytometry; type: tissue-based
T2 sequence (Q06187 whole entry): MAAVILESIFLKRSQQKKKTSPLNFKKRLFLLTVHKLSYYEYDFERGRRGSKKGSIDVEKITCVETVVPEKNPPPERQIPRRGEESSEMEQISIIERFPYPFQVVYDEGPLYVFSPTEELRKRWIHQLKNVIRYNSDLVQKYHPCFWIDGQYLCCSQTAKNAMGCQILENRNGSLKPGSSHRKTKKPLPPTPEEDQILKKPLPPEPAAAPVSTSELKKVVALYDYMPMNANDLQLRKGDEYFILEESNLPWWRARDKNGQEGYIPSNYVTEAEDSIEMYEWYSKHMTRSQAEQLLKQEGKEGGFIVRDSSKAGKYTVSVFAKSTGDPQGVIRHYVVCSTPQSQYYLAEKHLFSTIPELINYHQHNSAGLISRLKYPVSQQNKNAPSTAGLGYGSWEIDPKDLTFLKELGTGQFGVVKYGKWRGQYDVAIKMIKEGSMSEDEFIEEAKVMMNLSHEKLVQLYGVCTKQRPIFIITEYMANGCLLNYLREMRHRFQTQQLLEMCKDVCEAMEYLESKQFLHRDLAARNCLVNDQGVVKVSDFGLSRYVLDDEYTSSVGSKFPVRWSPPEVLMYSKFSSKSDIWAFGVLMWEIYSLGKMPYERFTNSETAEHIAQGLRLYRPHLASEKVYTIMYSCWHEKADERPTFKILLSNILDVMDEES

[4] = Intrinsic clearance in human hepatocytes assessed per million cells at 1 uM preincubated for 1 hr followed by NADPH addition and measured by LC/MS/MS analysis; type: ADME, cell-based, Hepatocyte; details: read-out: CLH
[5] = Intrinsic clearance in rat hepatocytes assessed per million cells at 1 uM preincubated for 1 hr followed by NADPH addition and measured by LC/MS/MS analysis; type: ADME, cell-based, Hepatocyte; details: read-out: CLH
[6] = Intrinsic clearance in human liver microsomes at 1 uM preincubated for 1 hr followed by NADPH addition and measured by LC/MS/MS analysis; type: ADME, Microsome; details: read-out: CLH
[7] = target: T2, Tyrosine-protein kinase BTK; test: Inhibition of Kinase Tracer 178 binding to biotinylated-BTK (unknown origin) measured after 18 to 24 hrs by Europium-labeled Streptavidin conjugate based TR-FRET assay
[8] = target: Cytochrome P450 2C9 (Homo sapiens, UniProt P11712); test: Inhibition of CYP2C9 (unknown origin); type: ADME
Cytochrome P450 2C9, sequence (P11712 whole entry): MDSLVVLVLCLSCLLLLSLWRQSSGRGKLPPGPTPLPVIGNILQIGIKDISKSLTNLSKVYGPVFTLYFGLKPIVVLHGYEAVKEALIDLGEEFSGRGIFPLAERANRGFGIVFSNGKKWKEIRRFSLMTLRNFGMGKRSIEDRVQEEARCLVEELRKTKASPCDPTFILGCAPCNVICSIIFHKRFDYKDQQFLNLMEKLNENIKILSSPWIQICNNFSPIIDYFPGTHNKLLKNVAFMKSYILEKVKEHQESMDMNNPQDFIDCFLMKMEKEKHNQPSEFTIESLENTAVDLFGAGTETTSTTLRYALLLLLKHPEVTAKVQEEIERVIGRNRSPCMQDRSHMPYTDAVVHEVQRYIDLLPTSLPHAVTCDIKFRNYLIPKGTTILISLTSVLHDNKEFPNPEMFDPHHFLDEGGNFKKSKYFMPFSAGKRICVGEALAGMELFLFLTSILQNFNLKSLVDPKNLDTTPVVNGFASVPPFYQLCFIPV

[9] = target: T1, Cytochrome P450 3A4; test: Time-dependent inhibition of CYP3A4 (unknown origin); type: ADME
[10] = Solubility of the compound by LYSA; type: physicochemical
[11] = target: Cytochrome P450 2D6 (Homo sapiens, UniProt P10635); test: Inhibition of CYP2D6 (unknown origin); type: ADME
Cytochrome P450 2D6, sequence (P10635 whole entry): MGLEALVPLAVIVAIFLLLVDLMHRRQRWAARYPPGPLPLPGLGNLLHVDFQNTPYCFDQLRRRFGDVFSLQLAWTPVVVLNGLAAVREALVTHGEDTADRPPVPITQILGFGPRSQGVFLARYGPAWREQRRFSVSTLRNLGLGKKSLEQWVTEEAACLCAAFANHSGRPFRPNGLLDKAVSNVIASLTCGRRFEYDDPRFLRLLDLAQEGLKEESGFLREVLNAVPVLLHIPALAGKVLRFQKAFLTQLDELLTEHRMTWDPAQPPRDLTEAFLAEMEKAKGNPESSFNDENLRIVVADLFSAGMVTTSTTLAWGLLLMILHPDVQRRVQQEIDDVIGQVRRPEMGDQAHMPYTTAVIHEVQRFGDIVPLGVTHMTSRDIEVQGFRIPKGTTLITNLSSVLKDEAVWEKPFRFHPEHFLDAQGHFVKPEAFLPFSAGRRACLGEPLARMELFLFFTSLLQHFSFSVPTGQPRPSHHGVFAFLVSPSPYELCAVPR

microsomal CLint at 1 µM [1]	INH [2]	IC50 [3]	hepatocyte CLint at 1 µM [4]	hepatocyte CLint at 1 µM [5]	microsomal CLint at 1 µM [6]	IC50 [7]	INH [8]	TDI [9]	solubility [10]	INH [11]	SMILES
29 µL/min/mg	> 10 µM	23 nM	0.3 µL/min/1e6 cells	2 µL/min/1e6 cells	20 µL/min/mg	< 1 nM	> 10 µM	0%	1.1 µg/mL (≈ 1.72 µM)	> 10 µM	Cn1nc(-c2cccc(-n3ncc4cc(C(C)(C)C)cc(F)c4c3=O)c2CO)cc(Nc2ccc(C(=O)N3CCOCC3)cn2)c1=O
19 µL/min/mg	> 7 µM		0.3 µL/min/1e6 cells	3.3 µL/min/1e6 cells	29 µL/min/mg		> 7 µM	0%	1 µg/mL (≈ 1.5 µM)	> 7 µM	Cn1c2c(cc(Nc3ccc(C(=O)N4CCOCC4)cn3)c1=O)-c1cccc(-n3ncc4cc(C(C)(C)C)cc(F)c4c3=O)c1CC(O)C2 (racemic)
								Not Active			Cn1c2c(cc(Nc3ccc(C(=O)N4CCOCC4)cn3)c1=O)-c1cccc(-n3ncc4cc(C(C)(C)C)cc(F)c4c3=O)c1C[C@H](O)C2
